Results on 29 compounds are retold here after PubChem BioAssay (NCI).

A word on the TGI: it is the concentration at which net growth stops. Higher therefore signals lower sensitivity of the cells. A word on the GI50: it is the concentration giving 50% growth inhibition.

Holding throughout (assay): DTP human tumour cell line panel, 48 h
The test system of assay [1] is NCI-H226 lung.
Assay [2] relates to UACC-257 melanoma.
For assay [3], the system named is RXF 393 renal.
The subject of assay [4] is 786-0 renal.
The test system of assay [5] is MOLT-4 leukemia.
Assay [6] relates to NCI-H460 lung.
Assay [7] concerns HL-60(TB) leukemia.
The test system of assay [8] is COLO 205 colon.
The test system of assay [9] is NCI/ADR-RES ovarian.
Assay [10] has as its system A498 renal.

Molecules are shown by their SMILES.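 All cell lines were grown in 96-well plates and treated with compound for 48 hours. GI50 = concentration required for 50% inhibition of growth. Definition used: TGI = concentration required for complete inhibition of growth.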

For `CC(=O)Nc1ccc(OC2=CCN(C)CC2)cc1`, the TGI in assay [1], in [2], in [3], in assay [4], in [5] and in assay [6] was over 100 µM each time. For the same compound, the TGI in assay [7], in assay [8] and in [9] was over 100 µM throughout.
As for `CCN(C(=S)N[C@H](C(=O)N[C@@H](C)C(=O)OC)C(C)C)c1ccccc1`, the TGI in assay [1], in [2], in [3], in assay [4], in assay [5] and in assay [6] was over 100 µM each time. Moreover, the TGI in assay [8] and in assay [9] was over 100 µM throughout.
`COc1ccc2nc3cc([N+](=O)[O-])ccc3c(Nc3ccc(S(=O)(=O)NC(C)=O)cc3)c2c1`: the TGI in [1], in assay [2], in [3], in [4], in assay [10] and in assay [5] was over 100 µM each time. The TGI in assay [6], in assay [7] and in assay [8] was over 100 µM each time.
Turning to `O=C1C(=O)c2ccccc2C(O)=C1CCCc1ccc(Oc2ccccc2)cc1`, the TGI in [1] is 47.9 µM; in assay [2], 23.9 µM; in [3] it was 64.1 µM; in assay [4], 35.4 µM; in assay [10], 90.5 µM; in assay [5] it was over 100 µM. Further, the TGI in [6] turned out to be 41.9 µM; in [7], 47.9 µM; in [8], 32.1 µM.
Turning to `O=C1/C(=N\S(=O)(=O)c2ccccc2)C([n+]2ccc(Cc3ccccc3)cc2)=C([O-])c2ccccc21`, the TGI in [1] was determined as 3.73 µM; in [2], 2.54 µM; in assay [3], 6.59 µM; in [4], 3.58 µM; in assay [5], 4.49 µM; in [6], 2.22 µM. Also, the TGI in [8] was found to be 1.14 µM; in [9], 18.3 µM.
`CC1(C)[C@H]2CC[C@]1(C)[C@H](OC(=O)NNC(=O)O[C@@H]1C[C@@H]3CC[C@@]1(C)C3(C)C)C2`: the TGI in assay [1] came to 34.1 µM; in assay [2], 33 µM; in [3], 24.7 µM; in [4], 50.3 µM; in assay [10] it was 33.8 µM; in assay [5], 27.3 µM. Moreover, the results for the TGI in assay [6], in assay [7] and in assay [8] were 28.6 µM, 62.7 µM and 25.6 µM, respectively.
In the case of `O=C(OCCN=c1c2ccccc2ccc2ccccc12)c1ccc([N+](=O)[O-])cc1`, the TGI in assay [1], in assay [2], in [3], in [4], in assay [5] and in [6] was over 100 µM each time. The TGI in [7], in assay [8] and in assay [9] was over 100 µM throughout.
In the case of `CCOP(=O)(OCC)C1CC(n2cc(C)c(=O)[nH]c2=O)OC1CO` (stereo unspecified), the concentration for total growth inhibition (TGI) in assay [1], in assay [2], in assay [3], in assay [4], in assay [10] and in assay [5] was over 100 µM in each case. The TGI in [6] and in assay [7] was over 100 µM throughout.
On to `COc1c(O)cc(O)c2c(=O)cc(-c3ccccc3)oc12`, for which the TGI in assay [1] is over 100 µM; in assay [2], over 100 µM; in [3] it was 42.7 µM; in [4], over 100 µM; in assay [5] it was over 100 µM; in assay [6], over 100 µM. In addition, the TGI was 57.3 µM in assay [7], over 100 µM in [8] and over 100 µM in assay [9].
In the case of `CCOC(=O)Cc1cc(OC)c(OC)cc1/C(Cl)=C(\C=O)c1ccc(OC)c(OC)c1`, the TGI in assay [2] was 32.9 µM; in assay [3], over 100 µM; in [5], 42.1 µM; in assay [6] it was 17.9 µM; in assay [7] it was 40.9 µM; in assay [8], 50.6 µM.
Take `CC1(c2ccc[n+](Cc3ccccc3)c2)OCCO1`: the TGI in [1], in assay [2], in [3], in assay [4], in [10] and in [5] was over 100 µM each time. Further, the TGI in assay [6], in [7] and in assay [8] was over 100 µM in each case.
Consider `COc1ccc(-c2cc(-c3cc4cc(Br)ccc4nc3Cl)c(C#N)c(N)n2)cc1`, for which the TGI in [1], in assay [3], in assay [4], in assay [5], in [7] and in assay [8] was over 12.5 µM throughout. The TGI in assay [9] was over 12.5 µM.
Consider `COc1cc(C(C)c2cc3c(cc2OCCO)OCO3)cc(OC)c1OC` (stereo unspecified), for which the TGI was over 100 µM in [1]; over 100 µM in assay [2]; 3.43 µM in [3]; over 100 µM in [5]; over 100 µM in assay [6]; 2.02 µM in [7]. The compound also had a TGI in [8] of 7.47 µM.
Regarding `CC1(C)CC(=O)c2c(nc3ccc4ccccc4c3c2-c2ccc(NC(=O)CCCCCCCCC(=O)Nc3ccc(-c4c5c(nc6ccc7ccccc7c46)CC(C)(C)CC5=O)cc3)cc2)C1`, the TGI in assay [1], in assay [2], in assay [4], in [10], in [5] and in assay [6] was over 100 µM throughout. For the same compound, the TGI in assay [7], in [8] and in [9] was over 100 µM throughout.
Regarding `COc1ccc(C(SC2C(O)C(CO)OC2n2ccc(N)nc2=O)(c2ccccc2)c2ccc(OC)cc2)cc1` (stereo unspecified), the TGI is 28.3 µM in assay [1]; 41.7 µM in assay [2]; 31.5 µM in assay [3]; 30.8 µM in assay [4]; over 100 µM in assay [5]; 27.2 µM in [6]. Besides, the results for the TGI in assay [7], in assay [8] and in assay [9] were 69.4 µM, 28.7 µM and 60 µM, respectively.
Take `COc1ccc(C2N(NC(=O)c3ccncc3)C(=O)CS2(=O)=O)cc1F` (stereo unspecified): the TGI in assay [1], in assay [2], in [3], in assay [10], in [5] and in assay [6] was over 100 µM in each case. Moreover, the TGI in assay [7] and in assay [8] was over 100 µM throughout.
As to `COc1ccc(C(=O)Cc2ccc(Br)cc2)cc1OC`, the TGI in assay [1], in [2], in assay [3], in assay [10], in assay [5] and in assay [6] was over 100 µM each time. The TGI in [7] was over 100 µM.
For the compound `O=c1oc2ccccc2cc1-c1cn2cc(Cl)ccc2n1`, the TGI was over 57.3 µM in assay [1]; over 45.9 µM in [2]; 9.48 µM in [3]; 8.95 µM in assay [4]; over 36.1 µM in assay [5]; 13.6 µM in assay [6]. The TGI was over 61.7 µM in [7], over 50.3 µM in assay [8] and 2.73 µM in assay [9].
In the case of `CSc1n[nH]c(N)c1C(=O)Nc1ccc(C)cc1`, the TGI in assay [1] was over 100 µM; in assay [2], over 100 µM; in [3], over 100 µM; in [4], over 100 µM; in assay [10], 82.7 µM; in assay [5], over 100 µM. Further, the TGI in [6], in [7] and in assay [8] was over 100 µM each time.
On to `C[C@@H]1CC[C@H]2C(C(O)CCCCC(O)C3=C(C(F)(F)F)O[C@@H]4O[C@@]5(C)CC[C@H]6[C@H](C)CC[C@@H]3[C@@]46OO5)=C(C(F)(F)F)O[C@@H]3O[C@@]4(C)CC[C@@H]1[C@]32OO4` (stereo partly specified), for which the GI50 was 33.6 µM in [1]; 14.9 µM in [2]; 9.06 µM in assay [3]; 45.6 µM in [10]; 6.35 µM in assay [5]; 15.3 µM in assay [6]. Further, the GI50 in [7] is 6.44 µM; in [8], 8.04 µM. In addition, the TGI in assay [1], in [2], in assay [3], in [10], in assay [5] and in [6] was over 100 µM each time. In addition, the TGI is over 100 µM in assay [7] and 29.4 µM in assay [8].
On to `COc1cc2cc[n+]3c(C)c4cc(OC)c(OC)cc4c([O-])c3c2cc1OC`, for which the TGI in assay [1] is over 100 µM; in assay [2], over 100 µM; in [3], 89.9 µM; in [10] it was over 100 µM; in assay [5], over 100 µM; in [6] it was over 100 µM. Besides, the TGI stood at 48.8 µM in [7] and 48.3 µM in [8].
Consider `c1ccc2c(c1)CCc1c-2n(CCN2CCOCC2)c2ccccc12`, for which the TGI in assay [1] is over 100 µM; in assay [2], over 100 µM; in assay [4], over 100 µM; in [5], over 100 µM; in assay [6], 92.9 µM; in assay [8], over 100 µM. The compound further registered a TGI in [9] of over 100 µM.
Regarding `CCOC(=O)c1cc2c(C(=O)c3ccc([N+](=O)[O-])cc3)c(C(C)=O)ccc2[nH]1`, the TGI in assay [1] is over 100 µM; in assay [2], over 100 µM; in assay [3], 80.5 µM; in [4] it was over 100 µM; in assay [10] it was over 100 µM; in [5], over 100 µM. Further, the TGI in [6], in assay [7] and in [8] was over 100 µM throughout.
Turning to `CCOC(=O)C(NC(=O)CC)(Nc1cc(C)on1)C(F)(F)F` (stereo unspecified), the TGI in assay [2], in [3], in assay [4], in assay [5], in [7] and in [8] was over 100 µM each time. For the same compound, the TGI in assay [9] is over 100 µM.
Regarding `Cc1c(NC(=O)CSC(=S)N2CCN(Cc3ccccc3)CC2)c(=O)n(-c2ccccc2)n1C`, the total growth inhibition concentration (TGI) in [1], in assay [2], in [3], in assay [4], in assay [5] and in assay [6] was over 100 µM each time. In addition, the TGI in assay [8] and in assay [9] was over 100 µM in each case.
With `O=c1c2cc(I)ccc2nc(-c2cccs2)n1-c1ccc(O)cc1`, the TGI in assay [1] was 35.9 µM; in assay [2], 22.1 µM; in assay [3] it was 30.8 µM; in [4], 29.8 µM; in [5] it was 78.9 µM; in assay [6], 52.6 µM. Further, the TGI in [7] turned out to be 36.7 µM; in assay [8] it was 36.1 µM; in [9], 56.2 µM.
In the case of `O=C(O)c1ccn(-c2cccc(-n3ccc(C(=O)O)n3)n2)n1`, the TGI in assay [1], in [2], in assay [3], in [4], in assay [5] and in assay [6] was over 100 µM each time. The TGI in assay [7], in assay [8] and in assay [9] was over 100 µM each time.
Turning to `CCOc1cc(C2CC(c3ccc(NS(=O)(=O)c4cc([N+](=O)[O-])ccc4C)cc3)=NN2c2ccc([N+](=O)[O-])cc2[N+](=O)[O-])ccc1O` (stereo unspecified), the TGI is 24 µM in [1]; 59.5 µM in assay [2]; 27 µM in assay [3]; 6.71 µM in assay [4]; over 100 µM in assay [5]; over 100 µM in assay [7]. For the same compound, the TGI worked out at 52.4 µM in [8] and 63.8 µM in assay [9].
For the compound `COc1cc(/C=C2/C[C@H]3[C@@H]4CC=C5C[C@@H](OC(C)=O)CC[C@]5(C)[C@H]4CC[C@]3(C)NC2=O)cc(OC)c1OC`, the TGI in assay [2] was 97.1 µM; in assay [3], 39.4 µM; in assay [4] it was 36.7 µM; in assay [5] it was 91.4 µM; in assay [6] it was over 100 µM; in assay [8] it was over 100 µM. The compound also came in with a TGI in assay [9] of 54.4 µM.
